{"source": "patent US6355799B1", "about": "“Substituted benzene compounds, process for their preparation, and herbicidal and defoliant compositions containing them” (ISK Americas Incorporated, priority 1997, dated 2002)", "format_in_all_cases": "in vivo", "key": {"[1]": {"tested_on": "redroot pigweed (Amaranthus retroflexus, AMARE)", "experiment": "Pre-emerge test, greenhouse herbicide activity screening", "conditions": "rating scale 0-100, 14 days after application", "method_in_brief": "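Compounds in acetone were track-sprayed at 187 l/ha, 15–1000 g ai/ha, onto sandy loam pots. Pre-emerge seeds were sown one day before spraying, with surface watering afterwards. Post-emerge plants were at the 2–3 leaf stage and sprayed with 0.25% v/v non-ionic surfactant. Injury was rated 0–100 at 14 days.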"}, "[2]": {"tested_on": "barnyardgrass (Echinochloa crus-galli, ECHCG)", "experiment": "Pre-emerge test, greenhouse herbicide activity screening", "conditions": "rating scale 0-100, 14 days after application", "method_in_brief": "(§1)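 Sandy loam pots; pre-emerge: sown 1 d pre-spray, surface-watered after, then bottom-watered. Post-emerge: sown 8–21 d before, 2–3 leaf stage, + 0.25% v/v NIS, bottom-watered. Acetone, 187 l/ha track spray, 15–1000 g ai/ha. 0–100 injury score, day 14.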"}, "[3]": {"tested_on": "green foxtail (Setaria viridis, SETVI)", "experiment": "Pre-emerge test, greenhouse herbicide activity screening", "conditions": "rating scale 0-100, 14 days after application", "method_in_brief": "as §1"}, "[4]": {"tested_on": "ivyleaf morningglory (Ipomoea hederacea, IPOHE)", "experiment": "Pre-emerge test, greenhouse herbicide activity screening", "conditions": "rating scale 0-100, 14 days after application", "method_in_brief": "as §1"}, "[5]": {"tested_on": "johnsongrass (Sorghum halepense, SORHA)", "experiment": "Pre-emerge test, greenhouse herbicide activity screening", "conditions": "rating scale 0-100, 14 days after application", "method_in_brief": "as §1"}, "[6]": {"tested_on": "lambsquarters (Chenopodium album, CHEAL)", "experiment": "Pre-emerge test, greenhouse herbicide activity screening", "conditions": "rating scale 0-100, 14 days after application", "method_in_brief": "as §1"}, "[7]": {"tested_on": "large crabgrass (Digitaria sanguinalis, DIGSA)", "experiment": "Pre-emerge test, greenhouse herbicide activity screening", "conditions": "rating scale 0-100, 14 days after application", "method_in_brief": "as §1"}, "[8]": {"tested_on": "sicklepod (Cassia obtusifolia, CASOB)", "experiment": "Pre-emerge test, greenhouse herbicide activity screening", "conditions": "rating scale 0-100, 14 days after application", "method_in_brief": "as §1"}, "[9]": {"tested_on": "velvetleaf (Abutilon theophrasti, ABUTH)", "experiment": "Pre-emerge test, greenhouse herbicide activity screening", "conditions": "rating scale 0-100, 14 days after application", "method_in_brief": "as §1"}, "[10]": {"tested_on": "field corn (Zea mays L., var. Dekalb 535, CORN)", "experiment": "Pre-emerge test, crop safety", "conditions": "rating scale 0-100, 14 days after application", "method_in_brief": "(§2)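 Rating: 0–100 visual injury, 14 DAA. Application: acetone, 187 l/ha, 15–1000 g ai/ha, flat-fan track sprayer with nozzle 40–45 cm above soil or canopy. Post-emerge runs used 0.25% v/v surfactant on 2–3 leaf plants.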"}, "[11]": {"tested_on": "upland rice (Oryza sp., var. Tebonnet, RICE)", "experiment": "Pre-emerge test, crop safety", "conditions": "rating scale 0-100, 14 days after application", "method_in_brief": "as §2"}, "[12]": {"tested_on": "barnyardgrass (Echinochloa crus-galli, ECHCG)", "experiment": "Post-emerge test, greenhouse herbicide activity screening", "conditions": "rating scale 0-100 (0 no damage, 100 complete death), 14 days after application", "method_in_brief": "(§3)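 Herbicidal damage is scored 0 (none) to 100 (complete plant death) two weeks after a simulated field spray. Rates span 15–1000 g ai/ha, delivered in acetone at 187 l/ha. For post-emergence treatments, plants have 2–3 leaves and the spray carries 0.25% v/v non-ionic surfactant.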"}, "[13]": {"tested_on": "common ragweed (Ambrosia artemisizfolia L., AMBEL)", "experiment": "Post-emerge test, greenhouse herbicide activity screening", "conditions": "rating scale 0-100 (0 no damage, 100 complete death), 14 days after application", "method_in_brief": "as §3"}, "[14]": {"tested_on": "green foxtail (Setaria viridis, SETVI)", "experiment": "Post-emerge test, greenhouse herbicide activity screening", "conditions": "rating scale 0-100 (0 no damage, 100 complete death), 14 days after application", "method_in_brief": "as §3"}, "[15]": {"tested_on": "ivyleaf morningglory (Ipomoea hederacea, IPOHE)", "experiment": "Post-emerge test, greenhouse herbicide activity screening", "conditions": "rating scale 0-100 (0 no damage, 100 complete death), 14 days after application", "method_in_brief": "as §3"}, "[16]": {"tested_on": "johnsongrass (Sorghum halepense, SORHA)", "experiment": "Post-emerge test, greenhouse herbicide activity screening", "conditions": "rating scale 0-100 (0 no damage, 100 complete death), 14 days after application", "method_in_brief": "as §3"}, "[17]": {"tested_on": "lambsquarters (Chenopodium album, CHEAL)", "experiment": "Post-emerge test, greenhouse herbicide activity screening", "conditions": "rating scale 0-100 (0 no damage, 100 complete death), 14 days after application", "method_in_brief": "as §3"}, "[18]": {"tested_on": "large crabgrass (Digitaria sanguinalis, DIGSA)", "experiment": "Post-emerge test, greenhouse herbicide activity screening", "conditions": "rating scale 0-100 (0 no damage, 100 complete death), 14 days after application", "method_in_brief": "as §3"}, "[19]": {"tested_on": "redroot pigweed (Amaranthus retroflexus, AMARE)", "experiment": "Post-emerge test, greenhouse herbicide activity screening", "conditions": "rating scale 0-100 (0 no damage, 100 complete death), 14 days after application", "method_in_brief": "as §3"}, "[20]": {"tested_on": "sicklepod (Cassia obtusifolia, CASOB)", "experiment": "Post-emerge test, greenhouse herbicide activity screening", "conditions": "rating scale 0-100 (0 no damage, 100 complete death), 14 days after application", "method_in_brief": "as §3"}, "[21]": {"tested_on": "velvetleaf (Abutilon theophrasti, ABUTH)", "experiment": "Post-emerge test, greenhouse herbicide activity screening", "conditions": "rating scale 0-100 (0 no damage, 100 complete death), 14 days after application", "method_in_brief": "as §3"}, "[22]": {"tested_on": "field corn (Zea mays L., var. Dekalb 535, CORN)", "experiment": "Post-emerge test, crop safety", "conditions": "rating scale 0-100 (0 no damage, 100 complete death), 14 days after application", "method_in_brief": "as §1"}, "[23]": {"tested_on": "upland rice (Oryza sp., var. Tebonnet, RICE)", "experiment": "Post-emerge test, crop safety", "conditions": "rating scale 0-100 (0 no damage, 100 complete death), 14 days after application", "method_in_brief": "as §1"}}}
{"smiles": "COc1c(Cl)cc(F)c(-n2c(=O)cc(C(F)(F)F)n(C)c2=O)c1CC(C)(Cl)C(=O)OCC(F)(F)C(F)F", "note": "(stereo not shown) [14-45]", "values": [{"measurement": "Pre-emerge herbicidal activity, phytotoxicity rating AMARE", "setting": "[1]; 63 g ai/ha", "result": 100}, {"measurement": "Pre-emerge herbicidal activity, phytotoxicity rating AMARE", "setting": "[1]; 250 g ai/ha", "result": 100}, {"measurement": "Pre-emerge herbicidal activity, phytotoxicity rating ECHCG", "setting": "[2]; 63 g ai/ha", "result": 0}, {"measurement": "Pre-emerge herbicidal activity, phytotoxicity rating ECHCG", "setting": "[2]; 250 g ai/ha", "result": 80}, {"measurement": "Pre-emerge herbicidal activity, phytotoxicity rating SETVI", "setting": "[3]; 63 g ai/ha", "result": 0}, {"measurement": "Pre-emerge herbicidal activity, phytotoxicity rating SETVI", "setting": "[3]; 250 g ai/ha", "result": 95}, {"measurement": "Pre-emerge herbicidal activity, phytotoxicity rating IPOHE", "setting": "[4]; 63 g ai/ha", "result": 0}, {"measurement": "Pre-emerge herbicidal activity, phytotoxicity rating IPOHE", "setting": "[4]; 250 g ai/ha", "result": 0}, {"measurement": "Pre-emerge herbicidal activity, phytotoxicity rating SORHA", "setting": "[5]; 63 g ai/ha", "result": 0}, {"measurement": "Pre-emerge herbicidal activity, phytotoxicity rating SORHA", "setting": "[5]; 250 g ai/ha", "result": 50}, {"measurement": "Pre-emerge herbicidal activity, phytotoxicity rating CHEAL", "setting": "[6]; 63 g ai/ha", "result": 95}, {"measurement": "Pre-emerge herbicidal activity, phytotoxicity rating CHEAL", "setting": "[6]; 250 g ai/ha", "result": 100}, {"measurement": "Pre-emerge herbicidal activity, phytotoxicity rating DIGSA", "setting": "[7]; 63 g ai/ha", "result": 30}, {"measurement": "Pre-emerge herbicidal activity, phytotoxicity rating DIGSA", "setting": "[7]; 250 g ai/ha", "result": 99}, {"measurement": "Pre-emerge herbicidal activity, phytotoxicity rating CASOB", "setting": "[8]; 63 g ai/ha", "result": 0}, {"measurement": "Pre-emerge herbicidal activity, phytotoxicity rating CASOB", "setting": "[8]; 250 g ai/ha", "result": 0}, {"measurement": "Pre-emerge herbicidal activity, phytotoxicity rating ABUTH", "setting": "[9]; 63 g ai/ha", "result": 100}, {"measurement": "Pre-emerge herbicidal activity, phytotoxicity rating ABUTH", "setting": "[9]; 250 g ai/ha", "result": 100}, {"measurement": "Pre-emerge phytotoxicity rating, crop damage CORN", "setting": "[10]; 63 g ai/ha", "result": 0}, {"measurement": "Pre-emerge phytotoxicity rating, crop damage CORN", "setting": "[10]; 250 g ai/ha", "result": 10}, {"measurement": "Pre-emerge phytotoxicity rating, crop damage RICE", "setting": "[11]; 63 g ai/ha", "result": 10}, {"measurement": "Pre-emerge phytotoxicity rating, crop damage RICE", "setting": "[11]; 250 g ai/ha", "result": 80}, {"measurement": "Post-emerge Herbicidal Activity, phytotoxicity rating ECHCG", "setting": "[12]; Rate 63 g ai/ha", "result": 100}, {"measurement": "Post-emerge Herbicidal Activity, phytotoxicity rating ECHCG", "setting": "[12]; Rate 250 g ai/ha", "result": 100}, {"measurement": "Post-emerge Herbicidal Activity, phytotoxicity rating AMBEL", "setting": "[13]; Rate 63 g ai/ha", "result": 100}, {"measurement": "Post-emerge Herbicidal Activity, phytotoxicity rating AMBEL", "setting": "[13]; Rate 250 g ai/ha", "result": 100}, {"measurement": "Post-emerge Herbicidal Activity, phytotoxicity rating SETVI", "setting": "[14]; Rate 63 g ai/ha", "result": 70}, {"measurement": "Post-emerge Herbicidal Activity, phytotoxicity rating SETVI", "setting": "[14]; Rate 250 g ai/ha", "result": 95}, {"measurement": "Post-emerge Herbicidal Activity, phytotoxicity rating IPOHE", "setting": "[15]; Rate 63 g ai/ha", "result": 100}, {"measurement": "Post-emerge Herbicidal Activity, phytotoxicity rating IPOHE", "setting": "[15]; Rate 250 g ai/ha", "result": 100}, {"measurement": "Post-emerge Herbicidal Activity, phytotoxicity rating SORHA", "setting": "[16]; Rate 63 g ai/ha", "result": 70}, {"measurement": "Post-emerge Herbicidal Activity, phytotoxicity rating SORHA", "setting": "[16]; Rate 250 g ai/ha", "result": 90}, {"measurement": "Post-emerge Herbicidal Activity, phytotoxicity rating CHEAL", "setting": "[17]; Rate 63 g ai/ha", "result": 100}, {"measurement": "Post-emerge Herbicidal Activity, phytotoxicity rating CHEAL", "setting": "[17]; Rate 250 g ai/ha", "result": 100}, {"measurement": "Post-emerge Herbicidal Activity, phytotoxicity rating DIGSA", "setting": "[18]; Rate 63 g ai/ha", "result": 90}, {"measurement": "Post-emerge Herbicidal Activity, phytotoxicity rating DIGSA", "setting": "[18]; Rate 250 g ai/ha", "result": 100}, {"measurement": "Post-emerge Herbicidal Activity, phytotoxicity rating AMARE", "setting": "[19]; Rate 63 g ai/ha", "result": 100}, {"measurement": "Post-emerge Herbicidal Activity, phytotoxicity rating AMARE", "setting": "[19]; Rate 250 g ai/ha", "result": 100}, {"measurement": "Post-emerge Herbicidal Activity, phytotoxicity rating CASOB", "setting": "[20]; Rate 63 g ai/ha", "result": 30}, {"measurement": "Post-emerge Herbicidal Activity, phytotoxicity rating CASOB", "setting": "[20]; Rate 250 g ai/ha", "result": 30}, {"measurement": "Post-emerge Herbicidal Activity, phytotoxicity rating ABUTH", "setting": "[21]; Rate 63 g ai/ha", "result": 100}, {"measurement": "Post-emerge Herbicidal Activity, phytotoxicity rating ABUTH", "setting": "[21]; Rate 250 g ai/ha", "result": 100}, {"measurement": "Post-emerge phytotoxicity rating CORN (crop damage)", "setting": "[22]; Rate 63 g ai/ha", "result": 70}, {"measurement": "Post-emerge phytotoxicity rating CORN (crop damage)", "setting": "[22]; Rate 250 g ai/ha", "result": 100}, {"measurement": "Post-emerge phytotoxicity rating RICE (crop damage)", "setting": "[23]; Rate 63 g ai/ha", "result": 70}, {"measurement": "Post-emerge phytotoxicity rating RICE (crop damage)", "setting": "[23]; Rate 250 g ai/ha", "result": 100}]}
